Patent US5321043A, “Method of combatting transplant rejection” (The University of Melbourne, priority 1992, dated 1994)
“Also recorded” adds a separate entry of the source.

System: MLC response of responder lymphocytes to irradiated EBV-transformed lymphoblastoid cells
Test: Mixed lymphocyte culture (MLC) suppression by CyA and PG analogues, alone and combined (tritiated thymidine uptake)
Type: cell-based, human
Conditions: for Suppression of MLC responses, mean % decrease of cpm vs drug-free cultures: mean of five donors
Protocol: Heparinised blood was obtained from five healthy donors without history of previous blood transfusion, pregnancy, or organ transplantation.
Prostaglandin (PG) analogues PGE1, PGE2, PGF2a, and PGI2 were supplied by the Upjohn Company (Kalamazoo, Mich.) in the form of 15-(s)-15-methyl PGE1, 16,16-dimethyl PGE2, 16,16-dimethyl PGF2α, and 9-deoxy-2,9a-methano-3-oxa-4,5,6-trinor-3,7-(1', 3'-interphenylene)-13,14'-dihydroprostaglandin FI (Compound A). Each was provided in methyl acetate at 10 mg/mL that was subsequently diluted, first with ethyl alcohol to a concentration of 1 mg/mL and thereafter with physiological saline to the concentration range required for the study, 10.0-0.001 μg/mL.
Responder lymphocytes were isolated from the healthy donor heparinised blood by density gradient separation and suspended in glutamine, antibiotic-supplemented RPMI medium containing 10% autologous responder lymphocyte donor serum at a concentration of 1 ×10^6 cells/mL. The stimulator population consisted of Epstein-Barr virus (EBV)-transformed lymphoblastoid cells that were irradiated (130 Gy) before suspension also at 1×10^6 cells/mL in glutamine, antibiotic-supplemented RPMI medium that contained 10% autologous responder lymphocyte donor serum.
Equal volumes (0.1 mL) of responder and stimulator cells were incubated in triplicate wells of microtitre trays with each of the following:
Following incubation at 37° C. (5% CO2) for 4 days, […] of tritiated thymidine was added to all cultures before further incubation for 6-8 hours, after which cells were automatically harvested (Skatron, Liebyen, Norway) on Titertek filter paper (Flow Laboratories, Irvine, Scotland) that was placed in vials containing liquid scintillation fluid for counting in a Beckman beta counter (Beckman, Brea, Calif.).

[1] = PG analogue 0.01 μg/mL + CyA 0.001 μg/mL
[2] = PG analogue 0.01 μg/mL + CyA 0.01 μg/mL
[3] = PG analogue 0.01 μg/mL + CyA 0.1 μg/mL
[4] = PG analogue 0.01 μg/mL + CyA 1.0 μg/mL
[5] = PG analogue 0.01 μg/mL + CyA 10.0 μg/mL
[6] = PG analogue 0.1 μg/mL + CyA 0.001 μg/mL
[7] = PG analogue 0.1 μg/mL + CyA 0.01 μg/mL
[8] = PG analogue 0.1 μg/mL + CyA 0.1 μg/mL
[9] = PG analogue 0.1 μg/mL + CyA 1.0 μg/mL
[10] = PG analogue 0.1 μg/mL + CyA 10.0 μg/mL
[11] = PG analogue 1.0 μg/mL + CyA 0.001 μg/mL
[12] = PG analogue 1.0 μg/mL + CyA 0.01 μg/mL
[13] = PG analogue 1.0 μg/mL + CyA 0.1 μg/mL
[14] = PG analogue 1.0 μg/mL + CyA 1.0 μg/mL
[15] = PG analogue 1.0 μg/mL + CyA 10.0 μg/mL
[16] = PG analogue 10.0 μg/mL + CyA 0.001 μg/mL
[17] = PG analogue 10.0 μg/mL + CyA 0.01 μg/mL
[18] = PG analogue 10.0 μg/mL + CyA 0.1 μg/mL
[19] = PG analogue 10.0 μg/mL + CyA 1.0 μg/mL
[20] = PG analogue 10.0 μg/mL + CyA 10.0 μg/mL

Compound | Suppression of MLC responses by CyA in combination with PG analogue [1] [%] | Suppression of MLC responses by CyA in combination with PG analogue [2] [%] | Suppression of MLC responses by CyA in combination with PG analogue [3] [%] | Suppression of MLC responses by CyA in combination with PG analogue [4] [%] | Suppression of MLC responses by CyA in combination with PG analogue [5] [%] | Suppression of MLC responses by CyA in combination with PG analogue [6] [%] | Suppression of MLC responses by CyA in combination with PG analogue [7] [%] | Suppression of MLC responses by CyA in combination with PG analogue [8] [%] | Suppression of MLC responses by CyA in combination with PG analogue [9] [%] | Suppression of MLC responses by CyA in combination with PG analogue [10] [%] | Suppression of MLC responses by CyA in combination with PG analogue [11] [%] | Suppression of MLC responses by CyA in combination with PG analogue [12] [%] | Suppression of MLC responses by CyA in combination with PG analogue [13] [%] | Suppression of MLC responses by CyA in combination with PG analogue [14] [%] | Suppression of MLC responses by CyA in combination with PG analogue [15] [%] | Suppression of MLC responses by CyA in combination with PG analogue [16] [%] | Suppression of MLC responses by CyA in combination with PG analogue [17] [%] | Suppression of MLC responses by CyA in combination with PG analogue [18] [%] | Suppression of MLC responses by CyA in combination with PG analogue [19] [%] | Suppression of MLC responses by CyA in combination with PG analogue [20] [%] | further results
CCCCC(C)(C)[C@H](O)/C=C/[C@H]1[C@H](O)CC(=O)[C@@H]1C/C=C\CCCC(=O)O [PGE2, 16,16-dimethyl PGE2] | 23 | 49 | 55 | 63 | 68 | 26 | 52 | 58 | 66 | 70 | 58 | 56 | 67 | 80 | 85 | 60 | 71 | 72 | 88 | 86 | decrease in PG analogue concentration necessary for 50% MLC suppression when combined with CyA vs alone (combination with CyA): 100 fold; Suppression of MLC responses, mean % decrease of cpm vs drug-free cultures (single agent at 0.001 μg/mL): 6%; Suppression of MLC responses, mean % decrease of cpm vs drug-free cultures (single agent at 0.01 μg/mL): 18%; Suppression of MLC responses, mean % decrease of cpm vs drug-free cultures (single agent at 0.1 μg/mL): 32%; Suppression of MLC responses, mean % decrease of cpm vs drug-free cultures (single agent at 1.0 μg/mL): 51%; Suppression of MLC responses, mean % decrease of cpm vs drug-free cultures (single agent at 10.0 μg/mL): 58%; times more effective in suppressing the MLC response than the PGF2a analogue (single agents): 10 times
CCCCC(C)(C)[C@H](O)/C=C/[C@@H]1[C@@H](C/C=C\CCCC(=O)O)[C@@H](O)C[C@H]1O [PGF2α, 16,16-dimethyl PGF2α] | 14 | 25 | 55 | 70 | 86 | 14 | 24 | 55 | 72 | 86 | 31 | 30 | 58 | 76 | 85 | 58 | 65 | 69 | 79 | 86 | interaction with CyA on MLC suppression (combination with CyA, listed as PGF2a): no influence further than that exerted when each was added alone; also recorded: no indication of synergistic interaction with CyA; minimum concentration which alone induced 50% MLC inhibition (single agent): 10.0 µg/mL; Suppression of MLC responses, mean % decrease of cpm vs drug-free cultures (single agent at 0.001 μg/mL): 0%; Suppression of MLC responses, mean % decrease of cpm vs drug-free cultures (single agent at 0.01 μg/mL): 4%; Suppression of MLC responses, mean % decrease of cpm vs drug-free cultures (single agent at 0.1 μg/mL): 16%; Suppression of MLC responses, mean % decrease of cpm vs drug-free cultures (single agent at 1.0 μg/mL): 29%; Suppression of MLC responses, mean % decrease of cpm vs drug-free cultures (single agent at 10.0 μg/mL): 50%
